pEC50: −log10 of the molar value. Where two headings read alike, the source gives them in different places.
Test system: NL4-3 strain of HIV-1
Experiment: microbe, parasite or virus in culture
Type: cell-based
Description: The antiviral activity, particularly against HIV, of compounds according to the invention is evaluated by the protocol described below.
Preparation of Virus stock of the NL4-3 strain of HIV-1
The virus was prepared as described in Lopez et al (Lopez et al, Proc Natl Acad Sci USA., 2006, 103(40):14947-52, by transfecting 2×10^6 293T cells (CRL-1573, ATCC) with following modifications: 6 μg of NL4-3 proviral DNA molecular clone were mixed with Fugene 6 transfection reagent from Roche, and used according to manufacturer's instructions. Forty eight hours later, transfected cell supernatants were harvested, filtered through 0.45-μm-pore-size filters, quantified for HIV-1 p24 antigen by using a Innotest HIV antigen mAb assay (Ingen) according to manufacturer's instructions, and used in infection experiments.
Serial dilutions of compounds to be tested were prepared in complete RPMI medium from 10 mM DMSO stock solutions, and distributed in a volume of 20 μl in 96 well Falcon 353072 Microtest™ tissue culture plate, in order to get 0.5% DMSO final concentration in each well, after the addition of infected cells. Control wells contained also 0.5% DMSO final concentration but no compound.
MT4 cells (from the NIH AIDS Research and Reference Reagent Program) in RPMI complete medium were counted (10×10^6 cells per well in Falcon 353047 Multiwell™ 24 well) and infected for 2 hours at 37°, at a multiplicity of infection (moi) of 0.0001-0.00001. Cells were then centrifuged 3 min at 3000 rpm, and washed two times in 1 ml PBS to remove viruses that have not entered in cells. Infected cells were resuspended in complete RPMI at 1.25×10^6 cells/ml, and […] of infected cells were distributed in each well containing compounds to be tested or control wells. The plates were then incubated at 37° for 5 days.
Assay used to measure the inhibition of HIV replication by the compounds
(according to Gregg S. Jones et al., Antimicrobial Agents and Chemotherapy, 2009, 53 (3): 1194-1203).
After 5 days of incubation, 50 μl of CellTiter-Glo reagent (Promega Biosciences, Inc., Madison Wis., USA) were added to each well. Cell lysis was carried out at room temperature during 10 min, 150 μl of lysates were transferred in Packard Optiplate 96 well, and luminescence was read on a Fluoroskan (Thermo Scientific).
The EC50, or effective concentration 50, is the concentration of compound leading to 50% of cyto-protection in a Cell-Titer-Glo® viability assay based on MT4 cells infected with NL4.3 virus.

[1] = Human immunodeficiency virus 1, NL43, 120 h, concentration leading to 50% of cyto-protection, MT4 cells infected with NL4.3 virus, 5 days incubation, CellTiter-Glo, read-out: EC50

| Structure (SMILES) | pEC50 [1] | pEC50 (Human immunodeficiency virus 1, NL43, MT4, 120 h) |
| --- | --- | --- |
| Cc1cccc2sc(C(OC(C)(C)C)C(=O)O)c(-c3ccc4c(c3)CCCO4)c12 (stereo not shown) [Example 23, 2-(tert-butoxy)-2-[3-(3,4-dihydro-2H-1-benzopyran-6-yl)-4-methyl-1-benzothiophen-2-yl]acetic acid] | 4.64 | – |
| Cc1sc(C)c(C(OC(C)(C)C)C(=O)O)c1C1=CCCCC1 (stereo not shown) [Example 29, 2-(tert-butoxy)-2-[4-(cyclohex-1-en-1-yl)-2,5-dimethylthiophen-3-yl]acetic acid] | 4.48 | – |
| Cc1sc(C)c(C(OC(C)(C)C)C(=O)O)c1-c1ccc2c(c1)CCCC2 (stereo not shown) [Example 39, 2-(tert-butoxy)-2-[2,5-dimethyl-4-(5,6,7,8-tetrahydronaphthalen-2-yl)thiophen-3-yl]acetic acid] | 4.39 | – |
| Cc1sc(C)c(C(OC(C)(C)C)C(=O)O)c1C1=CCC(C)(C)CC1 (stereo not shown) [Example 52, tert-butoxy-[4-(4,4-dimethyl-cyclohex-1-enyl)-2,5-dimethyl-thiophen-3-yl]-acetic acid] | – | 4.48 |
| CC(C)(C)OC(C(=O)O)c1c(C(F)(F)F)nn(C2CCCCC2)c1-c1ccc2c(c1)CCCO2 (stereo not shown) [Example 54, 2-(tert-butoxy)-2-[1-cyclohexyl-5-(3,4-dihydro-2H-1-benzopyran-6-yl)-3-(trifluoromethyl)-1H-pyrazol-4-yl]acetic acid] | 5.66 | – |
| Cc1sc(Cl)c(-c2ccc3c(c2)CCCO3)c1C(OC(C)(C)C)C(=O)O (stereo not shown) [Example 44, 2-(tert-butoxy)-2-[5-chloro-4-(3,4-dihydro-2H-1-benzopyran-6-yl)-2-methylthiophen-3-yl]acetic acid] | 4.80 | – |
| Cc1sc(C)c(C(OC(C)(C)C)C(=O)O)c1-c1ccc2c(c1)CCCO2 (stereo not shown) [Example 17, 2-(tert-butoxy)-2-[4-(3,4-dihydro-2H-1-benzopyran-6-yl)-2,5-dimethylthiophen-3-yl]acetic acid] | 4.59 | – |
| Cc1sc(C)c(C(OC(C)(C)C)C(=O)O)c1C1=CCCCCC1 (stereo not shown) [Example 31, 2-(tert-butoxy)-2-[4-(cyclohept-1-en-1-yl)-2,5-dimethylthiophen-3-yl]acetic acid] | 4.54 | – |
| Cc1cccc2c1C(c1ccc3c(c1)CCCO3)=C(C(OC(C)(C)C)C(=O)O)S2(=O)=O (stereo not shown) [Example 24, 2-(tert-butoxy)-2-[3-(3,4-dihydro-2H-1-benzopyran-6-yl)-4-methyl-1,1-dioxo-1λ^6-benzothiophen-2-yl]acetic acid] | 4.96 | – |
| Cc1sc(C)c(C(OC(C)(C)C)C(=O)O)c1-c1ccccc1Cl (stereo not shown) [Example 51, tert-butoxy-[4-(2-chloro-phenyl)-2,5-dimethyl-thiophen-3-yl]-acetic acid] | 4.39 | – |
| Cc1sc(C)c(C(SC(C)(C)C)C(=O)O)c1-c1ccc2c(c1)CCCO2 (stereo not shown) [Example 32, 2-(tert-butylsulfanyl)-2-[4-(3,4-dihydro-2H-1-benzopyran-6-yl)-2,5-dimethylthiophen-3-yl]acetic acid] | 4.59 | – |
| CC1=C(c2ccc3c(c2)CCCO3)C(C(OC(C)(C)C)C(=O)O)=C(C)S1(=O)=O (stereo not shown) [Example 18, (tert-butoxy)[4-(3,4-dihydro-2H-1-benzopyran-6-yl)-2,5-dimethyl-1,1-dioxo-1λ^6-thiophen-3-yl]acetic acid] | 4.47 | – |
| Cc1sc(C)c(C(OC(C)(C)C)C(=O)O)c1-c1ccc(Cl)cc1 (stereo not shown) [Example 50, tert-butoxy-[4-(4-chloro-phenyl)-2,5-dimethyl-thiophen-3-yl]-acetic acid] | 4.36 | – |
